Experimental data reported in patent publication US7892350B2, “Sacrificial agents for fly ash concrete” (Boral Material Technologies Inc., priority 2003, dated 2011).

Legend:
[1] = Paste air entrainment, Minimum air protocol
Method: (§1) Preparation of pastes: Pastes were prepared by pouring 400 g of cementitious powder in the 350-400 g of solution (water and additives) in a vessel (8.4 cm dia,×14.5 cm height) while gently stirring with a spatula; the exact quantity of water depends on the selected W/B ratio (see below); rapid hand mixing was continued for 1 minute, followed by intense stirring at 25° C. during 2 min using a hand-held mixer (BRAUN model MR400). The level of air entrained is dependent on the mode of utilisation of the mixer, namely the height of the mixer from the bottom of the vessel and the length of the mixing stroke; the following protocols were adopted.
Minimum air protocol: The BRAUN mixer is positioned at 1.0 inch from the bottom of the mixing vessel and the up-down motion of the mixer is limited to a 1.0 inch displacement; this provided ‘minimum air’ entrained air levels and is later referred to as ‘Minimum air protocol’ (Results reported in Table 6, col. 1 and Table 7).
(§2) Fluidity measurements: For all air entrainment measurements, the initial fluidity of the paste (without additives) was controlled using the ‘mini-slump’ procedure widely used for paste and grouts. In this protocol, a portion of the paste was transferred into the min-slump cone (a 2¼″ high, 1½″ bottom diameter, ¾″ top diameter cone); excess paste was skimmed-off with a straight; the cone was then raised and the spread diameter of the paste was recorded (average of two measurements). The fluidity is measured at 10 minutes after mixing. The paste is returned to the batch and reserved for subsequent AE measurements. The fluidity of the paste (without SA and AEA) is adjusted by changing the amount of water (water/cementitious ratio) which yields a spread diameter of 115±5 mm. The latter is monitored regularly.
(§3) Air entrainment measurements: For air entrainment measurements, a portion of the paste was transferred to overfill a Plexiglas cylinder (3¾ inches height, 2 inches interior diameter), which was then levelled flush to the top of the cylinder with a straight edge. The mass of the filled cylinder, minus the weight of the empty cylinder, is then recorded and used to calculate the amount of air according to the following formula: […]
(§4) This procedure was carried out at three times at 30 min. intervals (6, 36 and 66 min); the paste was let to stand at rest between measurements, and was stirred gently by hand for one minute prior to the subsequent air entrainment measurements.
Typical mixture compositions for air entrainment measurements in pastes containing a single additive using ‘Minimum air protocol’ (results shown in Table 6, col. 1): […]

[2] = Paste air entrainment, Maximum air protocol; conditions: PCA cement paste; 0.0125% SA or AEA alone; Maximum air protocol
Method: as §1, §2, §3, §4
Other combinations of air entrainment agents and sacrificial agents were prepared as stock solutions following the procedure outlined above, adjusting the weights of the various components to achieve the desired component ratios.

[3] = Precipitation in slurry extract or leachate; type: physicochemical; conditions: pH 12.5, entries in parentheses
Method: (§5) The pH of the solutions were adjusted to 12.5 with NaOH.
Precipitation in slurry extract or leachate: To perform this test, FA or cement leachate were prepared in advance, by filtering two liters of a 10 wt % FA, or cement, slurry in 0.03N NaOH which had been left to stand under slow agitation for 30 min; 2.5 g of the filtrate solution was mixed with 22.5 g of the SA or AEA solution in a 50 ml polypropylene centrifuge tube; the latter was shaken vigorously in an orbital shaker (Eberbach Corporation) for 30 min at room temperature, centrifuged for 5 min and then the supernatant solution was filtered (0.45 μm). The SA or AEA content of the solution was determined using an Ultraviolet-Visible (UV) spectrometer or by COD (Chemical Oxygen Demand) measurement.
Entries in parentheses: % precipitation when reacted with solutions extracted from the fly ash slurries (Results in Table 5).

[4] = Adsorption/precipitation of SA or AEA in 10 wt % aqueous fly ash or cement slurries at pH 12.5; type: physicochemical; conditions: initial SA 3 mM
Method: Adsorption/Precipitation of Sacrificial Agents (SA) or Air Entrainment Agents (AEA) in 10 wt % Aqueous Fly Ash Slurries at pH 12.5:
as §5
Adsorption/Precipitation in FA or Cement Slurries: In this protocol, aqueous slurries containing 10 wt % FA or cement were prepared as described above, except that in this case, the cement was added directly into a solution of the SA or AEA in the following proportions: 3.0 g cement or FA, and 27 g of 3 mM sacrificial agent, or 27 g of 1050 mg/l AEA; the latter were prepared in the same way as in the precipitation test above. The residual (soluble) SA or AEA content in the solution was also determined by UV or COD.

Precipitation (wt % precipitated) ([3]; solution extracted from 10 wt % fly ash B1 (LOI 4.36%) slurry): 0 wt %
Precipitation (wt % precipitated) ([3]; solution extracted from 10 wt % fly ash C1, class C (LOI 1.62%) slurry): 0 wt %
Precipitation (wt % precipitated) ([3]; solution extracted from 10 wt % fly ash C2 (LOI 3.32%) slurry): 0 wt %
Precipitation (wt % precipitated) ([3]; solution extracted from 10 wt % fly ash M1 (LOI […]) slurry): 80 wt %
Precipitation (wt % precipitated) ([3]; solution extracted from 10 wt % fly ash M2 (LOI 5.34%) slurry): 0 wt %
Precipitation (wt % precipitated) ([3]; solution extracted from 10 wt % fly ash M3 (LOI 11.33%) slurry): 0 wt %
Precipitation (wt % precipitated) ([3]; solution extracted from 10 wt % fly ash N (LOI 0.30%) slurry): 0 wt %
Adsorption (wt % Adsorbed) ([4]; 10 wt % fly ash B1 (LOI 4.36%) slurry, Air 30/Air 40 0.105 wt %): 9 wt %
Adsorption (wt % Adsorbed) ([4]; 10 wt % fly ash C1, class C (LOI 1.62%) slurry, Air 30/Air 40 0.105 wt %): 61 wt %
Adsorption (wt % Adsorbed) ([4]; 10 wt % fly ash C2 (LOI 3.32%) slurry): 4 wt %
Adsorption (wt % Adsorbed) ([4]; 10 wt % fly ash M1 (LOI […]) slurry, Air 30/Air 40 0.105 wt %): 90 wt %
Adsorption (wt % Adsorbed) ([4]; 10 wt % fly ash M2 (LOI 5.34%) slurry, Air 30/Air 40 0.105 wt %): 9 wt %
Adsorption (wt % Adsorbed) ([4]; 10 wt % fly ash M3 (LOI 11.33%) slurry, Air 30/Air 40 0.105 wt %): 12 wt %
Adsorption (wt % Adsorbed) ([4]; 10 wt % fly ash N (LOI 0.30%) slurry): 20 wt %
Compound: O=C([O-])c1cccc2ccccc12.[Na+] [NA, 1-Naphthoic acid sodium salt]
Air entrained ([1]; 50:50 fly ash B1 (LOI 4.36%):PCA paste, 0.1 wt % Air 30 alone or with 0.05 wt % of the SA): 4 vol %
Air entrained ([1]; 50:50 fly ash C1 (LOI 1.62%):PCA paste, 0.1 wt % Air 30 alone or with 0.05 wt % of the SA): 5 vol %
Air entrained ([1]; 50:50 fly ash D (LOI […]):PCA paste, 0.1 wt % Air 30 alone or with 0.05 wt % of the SA): 6 vol %
Air entrained ([1]; 50:50 fly ash M1 (LOI […]):PCA paste, 0.1 wt % Air 30 alone or with 0.05 wt % of the SA): 6 vol %
Air entrained ([1]; 50:50 fly ash M2 (LOI 5.34%):PCA paste, 0.1 wt % Air 30 alone or with 0.05 wt % of the SA): 4 vol %
Air entrained ([1]; 50:50 fly ash M3 (LOI 11.33%):PCA paste, 0.1 wt % Air 30 alone or with 0.05 wt % of the SA): 5 vol %
Air entrained ([1]; 50:50 fly ash R (LOI […]):PCA paste, 0.1 wt % Air 30 alone or with 0.05 wt % of the SA): 4 vol %
Air entrained ([1]; PCA cement paste, 0.1% SA or AEA alone, Minimum air protocol): 0 vol %
Average of air entrained ([1]; over the fly ash:PCA pastes of Table 7, 0.1 wt % Air 30 alone or with 0.05 wt % of the SA): 5%
Air entrained [2]: 0 vol %
